# Reference: ChEMBL document CHEMBL5390254, “Discovery and Optimization of Novel hDHODH Inhibitors for the Treatment of Inflammatory Bowel Disease” (J Med Chem, 2023)
# Activity calls are given as the source filed them. No cut-off for these calls is given here.
# Experiments:
# Mus musculus [1] = test: Anti-inflammatory activity against DSS-induced acute ulcerative colitis in C57BL/6 mouse model assessed as decrease in colon length shortening at 40 mg/kg, po QD for 6 days (Rvb= 5.5cm); assay type: functional; conditions: time 6 day
# Mus musculus [2] = test: Anti-inflammatory activity against DSS-induced acute ulcerative colitis in C57BL/6 mouse model assessed as decrease in colon tissue damage score at 40 mg/kg, po QD for 6 days relative to DSS group; assay type: functional; set-up: scale not given: the % may be the effect or the level left; conditions: time 6 day
# Mus musculus [3] = test: Anti-inflammatory activity against DSS-induced acute ulcerative colitis in C57BL/6 mouse model assessed as decrease in IL-6 mRNA expression level in colon at 40 mg/kg, po QD for 6 days by RT-PCR analysis; assay type: functional, organism-based; conditions: time 6.0 day
# Mus musculus [4] = test: Anti-inflammatory activity against DSS-induced acute ulcerative colitis in C57BL/6 mouse model assessed as increase in colon length at 80 mg/kg, po QD for 6 days (Rvb= 5.3cm); assay type: functional; conditions: time 6 day
# Mus musculus [5] = test: Anti-inflammatory activity against DSS-induced acute ulcerative colitis in C57BL/6 mouse model assessed as decrease in IL-6 production in colon at 40 mg/kg, po QD for 6 days by ELISA; assay type: functional; conditions: time 6.0 day
# Mus musculus [6] = test: Anti-inflammatory activity against DSS-induced acute ulcerative colitis in C57BL/6 mouse model assessed as decrease in body weight loss at 80 mg/kg, po QD for 6 days (Rvb= -13.4%); assay type: functional; set-up: scale not given: the % may be the effect or the level left; conditions: time 6 day
# Mus musculus [7] = test: Anti-inflammatory activity against DSS-induced acute ulcerative colitis in C57BL/6 mouse model assessed as decrease in IL-1beta mRNA expression level in colon at 40 mg/kg, po QD for 6 days by RT-PCR analysis; assay type: functional, organism-based; conditions: time 6.0 day
# Mus musculus [8] = test: Anti-inflammatory activity against DSS-induced acute ulcerative colitis in C57BL/6 mouse model assessed as decrease in IL-1beta production in colon at 40 mg/kg, po QD for 6 days by ELISA; assay type: functional; conditions: time 6.0 day
# Mus musculus [9] = test: Anti-inflammatory activity against DSS-induced acute ulcerative colitis in C57BL/6 mouse model assessed as decrease in IL-17 production in colon at 40 mg/kg, po QD for 6 days by ELISA; assay type: functional; conditions: time 6.0 day
# Mus musculus [10] = test: Anti-inflammatory activity against DSS-induced acute ulcerative colitis in C57BL/6 mouse model assessed as decrease in IL-17 mRNA expression level in colon at 40 mg/kg, po QD for 6 days by RT-PCR analysis; assay type: functional, organism-based; conditions: time 6.0 day
# [11] = 1-octanol/water partition coefficient, logP of the compound at 2 mg by UPLC analysis; assay type: physicochemical
SMILES,Activity (Mus musculus [1]) [cm],Activity (Mus musculus [2]) [%],Activity (Mus musculus [3]),Activity (Mus musculus [4]) [cm],Activity (Mus musculus [5]),Activity (Mus musculus [6]) [%],Activity (Mus musculus [7]),Activity (Mus musculus [8]),Activity (Mus musculus [9]),Activity (Mus musculus [10]),logP [11]
C[C@@H]1CCN(C(=O)CC#N)C[C@@H]1N(C)c1ncnc2[nH]ccc12 [TOFACITINIB],6.3,45.45,Active,6.7,Active,-3.9,Active,Active,Active,Active,
Fc1cccc(F)c1Cn1cc(-c2ncc(C3CC3)cn2)c2cccnc21,,,,,,,,,,,5.5
Nc1nc(-c2cn(Cc3c(F)cccc3F)c3ncccc23)ncc1C1CC1,,,,,,,,,,,5.1
